Assay results from US20060062832A1, “Sanitizing wipes with microbicidal properties cross-reference to related applications” (priority 2004, published 2006).

Legend:
Format in all cases: cell-based
[1] = test system: Escherichia coli ATCC 11229; test: A.O.A.C. sanitizer and germicidal detergent test; settings: compositions at listed % w/v; hypochlorite 50 ppm; sanitizer criterion 99.999% in 30 s
From the text: (§1) The bacterial cultures were purchased from the American Type Culture Collection (ATCC), (Bethesda, Md.). Escherichia coli and Staphylococcus aureus are used to represent both gram negative and gram-positive bacterial classes. This test is used by the US EPA for to determine compliance for a product to be used as a sanitizing agent. A product that reduces population density of both types of bacteria in 30 s by 99.999% satisfies the requirement as a sanitizing agent.

[2] = test system: Staphylococcus aureus ATCC 6538; test: A.O.A.C. sanitizer and germicidal detergent test; settings: compositions at listed % w/v; hypochlorite 50 ppm; sanitizer criterion 99.999% in 30 s
From the text: as §1

[3] = test system: Aeromonas hydrophila ATCC 7965; test: modified detergent and germicidal sanitizer test of the A.O.A.C.; settings: A.h. 7965
Protocol: (§2) The […], Listeria monocytogenes, Aeromonas hydrophila, and Pseudomonas aeruginosa essentially by the modified detergent and germicidal sanitizer test of the A.O.A.C. The sanitizers were tested against both natural isolates and the antibiotic resistant strains of Listeria monocytogenes and Salmonella typhimurium. Each of the antibiotic resistant strains was used separately as well as in a composite strain prepared by mixing equal numbers of five different antibiotic resistant strains of Listeria monocytogenes or those of Salmonella typhimurium, respectively.

[4] = test system: Listeria monocytogenes ATCC 7644; test: as above; settings: L.m. 7644
Protocol: as §2

[5] = test system: Pseudomonas aeruginosa ATCC 10145; test: as above; settings: P.a. 10145
Protocol: (§3) The efficacy of the sanitizers of Examples I-III were further evaluated with 50 ppm of hypochlorite as a control against Salmonella typhimurium, Listeria monocytogenes, Aeromonas hydrophila, and Pseudomonas aeruginosa essentially by the modified detergent and germicidal sanitizer test of the A.O.A.C. The sanitizers were tested against both natural isolates and the antibiotic resistant strains of Listeria monocytogenes and Salmonella typhimurium. Each of the antibiotic resistant strains was used separately as well as in a composite strain prepared by mixing equal numbers of five different antibiotic resistant strains of Listeria monocytogenes or those of Salmonella typhimurium, respectively.

[6] = test system: Salmonella typhimurium ATCC 7823; test: as above; design: key to Number of surviving bacteria/ml after 30 seconds: Too Numerous To Count; settings: S.t. 7823
Protocol: as §3

[7] = 30 seconds contact, HOCL = 200 ppm (mark on the cfu cell beside)

Structure (SMILES): OCl [Hypochlorite]
- % Kill E. coli [1]: >99.999%
- % Kill Staph. aureus [2]: >99.999%
- % Kill after 30 seconds [3, 7]: >99.999%
- % Kill after 60 seconds ([3]; 60 seconds contact): >99.999%
- % Kill after 30 seconds [4, 7]: >99.999%
- % Kill after 60 seconds ([4]; 60 seconds contact): >99.999%
- % Kill after 30 seconds ([5]; 30 seconds contact): >99.999%
- % Kill after 60 seconds ([5]; 60 seconds contact): >99.999%
- Number of surviving bacteria/ml after 30 seconds ([6]; 30 seconds contact, HOCL = 50 ppm): T@, T@
- % Kill after 30 seconds ([6]; 30 seconds contact, HOCL = 50 ppm (mark on the cfu cell beside)): <99.999%
- % Kill after 60 seconds ([6]; 60 seconds contact): >99.999%
